The source of these data is US5612363A, “N,N-di(aryl) cyclic urea derivatives as anti-coagulants” (Berlex Laboratories, Inc., priority 1995, dated 1997).

One experiment deals with T1, Human thrombin (Homo sapiens, UniProt P00734).
T1 construct: Human thrombin stock solution; purchased Enzyme Research Lab
Nature of the experiment: In vitro chromogenic assay for thrombin (S2302 cleavage). In kind it is biochemical. The settings on record: assay buffer pH 7.5, ambient temperature; read-out: Km (substrate concentration equal to Km). As for the experimental part:
(§1) The activities were determined as an initial rate of cleavage of the peptide p-nitroanilide by the enzyme. The cleavage product, p-nitroaniline, absorbs at 405 nm with a molar extinction coefficient of 9920M^-1 cm^-1.
(§2) 50 mM TrisHCl, 150 mM NaCl, 2.5 mM CaCl2, and 0.1% polyethylene glycol 6000, pH 7.5.
2. Human thrombin stock solution: Stored at -80° C. (working solution (2×): 1200 ng/mL or 40 nM in assay buffer, prepare prior to use).
1. S2222 (FXa assay) stock solution: 6 mM in dH2 O, store at 4° C. (working solution (4×): 656 μM in assay buffer). p1 2. S2302 (Thrombin assay) stock solution: 10 mM in dH2 O, stored at 4° C. (working solution (4×): 1200 μM in assay buffer).
Assays were performed in 96-well microtiter plates in a total volume of 200 μl. […] Concentrations of the standard inhibitor compound in the assay were from 5 μM to 0.021 μM in 1 to 3 dilution. Concentration of the test compounds in the assay typically were from 10 μM to 0.041 μM in 1 to 3 dilution. […]
(§3) The enzyme kinetics were measured at 405 nm, at 10 seconds interval, for five minutes in a THERMOmax plate reader at ambient temperature.
Enzyme rates were calculated as mOD/min based on the first two minutes readings. The IC50 values were determined by fitting the data to the log-logit equation (linear) or the Morrison equation (non-linear) with an EXCEL spread-sheet. […]

For experiment [1], the target named is T2, Human tissue plasminogen activator (tPA) (Two chains, Sigma) (Homo sapiens, UniProt P00750).
T2 construct: (tPA) (Two chains, Sigma); purchased Sigma
T2 sequence (P00750 311-562 limits assumed): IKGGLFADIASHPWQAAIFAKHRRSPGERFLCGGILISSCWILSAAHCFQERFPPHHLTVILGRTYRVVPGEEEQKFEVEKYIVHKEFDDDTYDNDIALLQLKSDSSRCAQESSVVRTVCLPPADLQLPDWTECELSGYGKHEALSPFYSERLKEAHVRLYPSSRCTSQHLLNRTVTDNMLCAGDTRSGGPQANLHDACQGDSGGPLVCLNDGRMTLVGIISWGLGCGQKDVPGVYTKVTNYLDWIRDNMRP
T2 sequence (P00750 36-310 partner limits assumed): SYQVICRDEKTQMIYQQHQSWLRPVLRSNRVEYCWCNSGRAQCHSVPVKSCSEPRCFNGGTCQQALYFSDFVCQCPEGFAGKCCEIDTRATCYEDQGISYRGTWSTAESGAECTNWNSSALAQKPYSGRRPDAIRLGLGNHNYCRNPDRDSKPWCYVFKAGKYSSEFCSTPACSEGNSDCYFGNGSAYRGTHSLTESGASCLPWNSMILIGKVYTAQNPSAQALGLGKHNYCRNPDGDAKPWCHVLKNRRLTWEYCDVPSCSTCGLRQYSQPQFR
The experiment can be described thus: In vitro chromogenic assay for tissue plasminogen activator (S2288 cleavage). The class given is biochemical. The following applies: assay buffer pH 7.5, ambient temperature; read-out: Km (substrate concentration equal to Km). As for the experimental part: as §1, §2
3. Human tissue plasminogen activator (tPA) (Two chains, Sigma) stock solution: 1 mg/mL, stored at -80° C. (working solution (2×): 1361 ng/mL in assay buffer, prepare prior to use).
3. S2288 (tPA assay) stock solution: 10 mM in dH2 O, stored at 4° C. (working solution (4×): 1484 μM in assay buffer). (All substrate working solutions were prepared on assay […].)
Assays were performed in 96-well microtiter plates in a total volume of 200 μl. […] Concentrations of the standard inhibitor compound in the assay were from 5 μM to 0.021 μM in 1 to 3 dilution. Concentration of the test compounds in the assay typically were from 10 μM to 0.041 μM in 1 to 3 dilution. For potent test compounds, the concentrations used in the factor Xa assay were further diluted 100 fold (100 nM to 0.41 nM) or 1000 fold (10 nM to 0.041 nM). All substrate concentrations used are equal to their Km values under the present assay conditions. Assays were performed at ambient temperature. […]
as §3

Residues, ends and D or L forms follow the SMILES beside them.

For the compound `N=C(N)NCCC[C@H](NC(=O)[C@H](Cc1ccccc1)NC(=O)[C@H]1CCCN1)C(=O)Nc1ccc([N+](=O)[O-])cc1` [Example S2302] (HELM PEPTIDE1{[dP].F.R.[O=[N+]([O-])c1ccc(N[*:1])cc1]}$$$$V2.0), the Km on Human thrombin is 300 µM.

As to `CC[C@@H](C)[C@@H](N)C(=O)N1CCC[C@H]1C(=O)N[C@@H](CCCN=C(N)N)C(=O)Nc1ccc([N+](=O)[O-])cc1` [Example S2288] (HELM PEPTIDE1{[dI].P.R.[O=[N+]([O-])c1ccc(N[*:1])cc1]}$$$$V2.0), the Km in experiment [1] amounted to 371 µM.
